Assay results from patent US7034110B2, “Method of identifying chemical compounds having selected properties for a particular application” (ArQule, Inc., priority 1994, dated 2006).
Like-named read-outs stand apart in the source and are kept apart here.

Key:
chymotrypsin = chymotrypsin (Bos taurus, UniProt P00766); experiment: competitive inhibition of chymotrypsin, standard assay using a BTEE substrate; assay type: biochemical
Description: The set of molecules where X=CH2 was tested as competitive inhibitiors of the enzyme chymotrypsin in a standard assay using a BTEE substrate.

[1] = boiling in 6 N NaOH for 24 hrs; cited from earlier work

| SMILES | Ki (chymotrypsin) | further results |
| --- | --- | --- |
| CN(C)C.NC(=O)c1ccccc1 [trimethyl amine benzamide] |  | hydrolytic stability [1]: unchanged |
| CC(=O)[N-][N+]1(CC(C)O)CCCCC1 (centres unmarked) [R1=Me, R2=Me] |  | Ki (chymotrypsin; competitive inhibition, BTEE substrate, set of molecules where X=CH2): not be an inhibitor |

Now from value to molecule, other results behind:

| Ki (chymotrypsin) | SMILES | further results |
| --- | --- | --- |
| 500 µM | O=C([N-][N+]1(CC(O)c2ccccc2)CCCCC1)c1ccccc1 (centres unmarked) [R1=Ph, R2=Ph] |  |
| 130 µM | CC(O)C[N+]1([N-]C(=O)c2ccccc2)CCCCC1 (centres unmarked) [R1=Me, R2=Ph] |  |
| 200 µM | CC(=O)[N-][N+]1(CC(O)c2ccccc2)CCCCC1 (centres unmarked) [R1=Ph, R2=Me] |  |
